Source: PubChem BioAssay (NCI)
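The compound was tested at five concentrations on cells cultured in 96-well plates, with a 48-hour exposure period. GI50 marks 50% less growth. TGI: total growth inhibition.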

How the values were obtained:
Test in all cases: NCI-60 cell line screen, 48 h
[1] = system: ACHN renal
[2] = system: CCRF-CEM leukemia
[3] = system: HCC-2998 colon
[4] = system: HCT-116 colon
[5] = system: HT29 colon
[6] = system: LOX IMVI melanoma
[7] = system: MCF7 breast
[8] = system: MDA-MB-231 breast
[9] = system: OVCAR-3 ovarian
[10] = system: SF-539 CNS

Structure (SMILES): COc1cc(S(=O)(=O)Nc2ccc(C(=O)/C=C/c3ccc(O)cc3)cc2)ccc1F
- GI50 [1]: > 100 µM
- TGI [1]: > 100 µM
- GI50 [2]: > 100 µM
- TGI [2]: > 100 µM
- GI50 [3]: > 100 µM
- TGI [3]: > 100 µM
- GI50 [4]: > 100 µM
- TGI [4]: > 100 µM
- GI50 [5]: > 100 µM
- TGI [5]: > 100 µM
- GI50 [6]: > 100 µM
- TGI [6]: > 100 µM
- GI50 [7]: > 100 µM
- TGI [7]: > 100 µM
- GI50 [8]: 0.0267 µM
- TGI [8]: 9.12 µM
- GI50 [9]: > 100 µM
- TGI [9]: > 100 µM
- GI50 [10]: > 100 µM
- TGI [10]: > 100 µM
